Legend:
[1] = test system: free radicals and NO formation; details: disclosed in Cheng et al., Biochemical Pharmacology, 2001, Vol. 61, 939-946; cited from earlier work
[2] = test system: TNFα; test: TNFα mRNA expression in LPS-stimulated RAW 264.7 macrophages (RT-PCR); type: cell-based; details: 0.1 μg/mL E. coli-derived LPS, 25 μM compound, FIGS. 1a to 1c
Procedure: (§1) RAW 264.7 macrophages were treated with 0.1 μg/mL of E. coli-derived LPS and 25 μM of Compounds A1 to A6, B1 to B6, or C1 to C6, respectively. Then, the mRNA expression level of the inflammatory cytokine TNFα was observed through RT-PCR.

[3] = test system: MCP1; test: MCP1 mRNA expression in LPS-stimulated RAW 264.7 macrophages; type: cell-based; details: 0.1 μg/mL E. coli-derived LPS, 25 μM compound, FIG. 6
[4] = test system: IL-1α; test: IL-1α mRNA expression in LPS-stimulated RAW 264.7 macrophages; type: cell-based; details: 0.1 μg/mL E. coli-derived LPS, 25 μM compound, FIG. 4
[5] = test system: IL-1β; test: IL-1β mRNA expression in LPS-stimulated RAW 264.7 macrophages; type: cell-based; details: 0.1 μg/mL E. coli-derived LPS, 25 μM compound, FIG. 5
[6] = test system: iNOS; test: iNOS mRNA expression in LPS-stimulated RAW 264.7 macrophages; type: cell-based; details: 0.1 μg/mL E. coli-derived LPS, 25 μM compound, FIGS. 3a and 3b
Procedure: as §1
(§2) FIGS. 2a and 2b show the result of representing the mRNA expression level of COX2. FIGS. 3a and 3b show the result of representing the mRNA expression level of iNOS.

[7] = test system: COX2; test: COX2 mRNA expression in LPS-stimulated RAW 264.7 macrophages; type: cell-based; details: 0.1 μg/mL E. coli-derived LPS, 25 μM compound, FIGS. 2a and 2b
Procedure: as §1, §2

[8] = test system: nitric oxide (NO); test: NO level in LPS-stimulated RAW 264.7 macrophages; type: cell-based; details: 0.1 μg/mL E. coli-derived LPS, 25 μM compound, FIGS. 7a and 7b
Procedure: as §1
Nitric oxide (NO), which is increased by LPS stimulation in RAW 264.7 macrophages, is one of the causes of inflammatory bowel disease along with inflammatory cytokines. Therefore, in Experimental Example 3, it was confirmed in the same manner as in Experimental Example 1 whether NO produced by LPS stimulation could be reduced by the compound according to the present invention.
FIGS. 7a and 7b show the results of observing NO concentration (μM).

Compound: CC(C)=CCc1cc(C(=O)/C=C/c2ccc(O)c(O)c2)c(O)cc1O [Compound A1, broussochalcone A]
- excessive free radicals and NO formation [1]: inhibits
- increase in the mRNA expression level of TNFα induced by LPS stimulation [2]: suppressed
- mRNA expression level of MCP1 [3]: suppressed
- mRNA expression level of IL-1α [4]: suppressed
- mRNA expression level of IL-1β [5]: suppressed
- mRNA expression level of iNOS [6]: suppressed
- mRNA expression level of COX2 [7]: suppressed
- NO level increased by LPS stimulation [8]: suppressed

Source: US20230125487A1, “COMPOSITION FOR TREATING OR PREVENTING INFLAMMATORY BOWEL DISEASE” (FUGENBIO CO., LTD., priority 2019, published 2023)
